Reference: patent publication US10550097B2, “Selective 11-beta-hydroxysteroid dehydrogenase type 1 inhibitors” (DSM IP ASSETS B.V., priority 2015, dated 2020)

Columns and labels:
11β-HSD1 = 11β-HSD1 (Homo sapiens, UniProt P28845); assay: 11β-HSD1 enzyme activity assay in cell lysates of transfected HEK-293 cells (HHH7 clone); format: biochemical; parameters: expressed in transfected cells; host or cells: HEK-293 (HHH7 clone), used as cell lysate; details: inhibitor 100 nM, 200 nM cortisone, 450 μM NADPH, 10 min
Method: Stably transfected human embryonic kidney (HEK-293) cells expressing 11β-HSD1 and hexose-6-phosphate dehydrogenase (the so called HHH7 clone) were cultivated for 48 h in Dulbecco's modified Eagle medium (DMEM) containing 4.5 g/L glucose, 10% fetal bovine serum, 100 U/mL penicillin, 0.1 mg/mL streptomycin, 1×MEM nonessential amino acids, and 10 mM HEPES buffer, pH 7.4. The cells were then washed with phosphate-buffered saline, and centrifuged for 4 min at 150×g. After removal of the supernatants, cell pellets were snap frozen on dry ice and stored at −80° C. until further use.
Cell lysates were incubated for 10 min at 37° C. in TS2 buffer (100 mM NaCl, 1 mM EGTA, 1 mM EDTA, 1 mM MgCl2, 250 mM sucrose, 20 mM Tris-HCl, pH 7.4) in a final volume of 22.2 μL containing either solvent (0.1% DMSO) or the inhibitor at the respective concentration as indicated in Table 4 (see below).
The steroids were separated by TLC, using methanol-chloroform (1:9) as solvent, followed by scintillation counting and calculation of substrate concentration. Data were collected from four independent measurements (standard deviation<10%).

[1] = tested on: Human skin from abdominal plastic surgery; assay: Ex vivo: total dermal collagen after cortisone and cortisone/inhibitor treatment; format: cell-based; details: day 6; for Dermal collagen: cortisone/inhibitor treatment, topical daily, untreated set to 100%
Method: Human skin from abdominal plastic surgery was used. The skin samples were cut in pieces of ˜8×3 mm (ø×thickness) and cultured up to day 6 in an air-liquid interface in a perforated ring of stainless steel in contact with a culture medium (modified Williams' E medium), while renewing the culture medium on day 3. Six skin specimens were used for each test sample. Each test sample (4 μl) was applied topically on top of each piece after cleaning of the surface with a cotton pad, which was subsequently covered with a 6 ø mm delivery membrane, this procedure was repeated daily. After 6 days skin sections were stained with Picrosirius Red histochemical staining, that dyes collagen fibers in purple-red. The papillary dermis was selected for the analysis. The different colors of the pictures were separated by using a deconvolution matrix. After deconvolution only pink-reddish images are used. Within these images the evaluation of dermal collagen was performed by estimating both color intensity and distribution with IMAGE J (NIH) analysis software. Two slides of each skin sample were processed by image acquisition and related analysis (i.e. 12 images for each treatment).

Sequence of 11β-HSD1 (P28845 whole entry): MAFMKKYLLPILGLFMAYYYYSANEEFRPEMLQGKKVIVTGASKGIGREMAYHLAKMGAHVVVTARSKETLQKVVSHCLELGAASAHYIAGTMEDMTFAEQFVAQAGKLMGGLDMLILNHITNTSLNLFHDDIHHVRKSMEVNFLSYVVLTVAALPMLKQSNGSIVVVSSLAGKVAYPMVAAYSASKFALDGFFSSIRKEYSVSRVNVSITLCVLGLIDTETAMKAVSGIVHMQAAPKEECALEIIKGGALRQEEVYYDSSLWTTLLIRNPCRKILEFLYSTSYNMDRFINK

Cc1ccc(-c2cccc(C(=O)N3CCCCCC3)c2)cn1 [IV-e, azepan-1-yl(3-(6-methylpyridin-3-yl)phenyl)methanone]
11β-HSD1 Remaining activity [% of control] (11β-HSD1): 31 % of control | Dermal collagen ([1]; 10 μM in DMSO): 103% | Increase versus cortisone (#2) ([1]; 10 μM in DMSO): +34% | Dermal collagen ([1]; 100 μM in DMSO): 101% | Increase versus cortisone (#2) ([1]; 100 μM in DMSO): +31% | Dermal collagen ([1]; 200 μM in DMSO): 96% | Increase versus cortisone (#2) ([1]; 200 μM in DMSO): +25%
